Key:
[1] = target: T1, METTL9 (Homo sapiens, UniProt Q9H1A3); assay type: biochemical; conditions: mono-methylated product monitored, N = 3
Target sequence in this assay (Q9H1A3 19-318): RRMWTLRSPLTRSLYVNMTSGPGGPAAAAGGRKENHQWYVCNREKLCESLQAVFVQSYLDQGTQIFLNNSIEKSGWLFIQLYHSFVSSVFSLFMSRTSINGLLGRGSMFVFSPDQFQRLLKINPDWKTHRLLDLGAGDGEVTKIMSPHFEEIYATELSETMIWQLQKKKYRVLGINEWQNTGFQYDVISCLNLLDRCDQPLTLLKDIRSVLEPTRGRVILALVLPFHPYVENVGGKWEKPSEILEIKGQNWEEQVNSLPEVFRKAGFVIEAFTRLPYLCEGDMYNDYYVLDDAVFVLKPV

[2] = target: T1, METTL9; test: Isothermal titration calorimetry; assay type: binding
Target sequence in this assay (Q9H1A3 whole entry): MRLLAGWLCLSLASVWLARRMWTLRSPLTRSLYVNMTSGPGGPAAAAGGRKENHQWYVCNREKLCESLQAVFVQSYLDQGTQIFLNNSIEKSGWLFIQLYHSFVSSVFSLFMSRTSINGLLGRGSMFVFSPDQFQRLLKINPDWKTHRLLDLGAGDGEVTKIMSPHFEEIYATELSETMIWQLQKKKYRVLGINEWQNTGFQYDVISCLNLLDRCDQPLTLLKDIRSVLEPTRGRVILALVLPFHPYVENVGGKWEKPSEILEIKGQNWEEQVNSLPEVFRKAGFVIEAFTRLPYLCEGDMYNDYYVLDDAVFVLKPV

[3] = test system: METTL9 mutants; test: ITC of mutant METTL9 titrated with SAH; assay type: binding, human; conditions: METTL9 T173A, T115A and N118A (range over the three mutants)
[4] = target: D213S or D213N; test: ITC
[5] = target: T115A, V241G, and C297A; test: ITC
[6] = target: METTL9 D213S (human, UniProt Q9H1A3 19-318, D213S); test: ITC
METTL9 D213S, sequence (Q9H1A3 19-318 D213S): as the sequence (Q9H1A3 19-318) above, with D195S counted along it

[7] = target: METTL9 D213N (human, UniProt Q9H1A3 19-318, D213N); test: ITC
METTL9 D213N, sequence (Q9H1A3 19-318 D213N): as the sequence (Q9H1A3 19-318) above, with D195N counted along it

[8] = target: METTL9 T115A (human, UniProt Q9H1A3 19-318, T115A); test: ITC
METTL9 T115A, sequence (Q9H1A3 19-318 T115A): as the sequence (Q9H1A3 19-318) above, with T97A counted along it

## O=C(O)CN(CCN(CC(=O)O)CC(=O)O)CC(=O)O [EDTA, ethylenediaminetetraacetic acid]
[1]; zinc ions removed by EDTA
  effect on METTL9 enzymatic activity towards SLC39A7_55-70 in presence of zinc: completely restored

## Nc1ncnc2c1ncn2[C@@H]1O[C@H](CSCC[C@H](N)C(=O)O)[C@@H](O)[C@H]1O [SAH, S-adenosylhomocysteine]
[2]
  Kd: 3.1 µM
[3]
  decrease in SAH binding relative to wild type: 2–10 fold

## C[S+](CC[C@H](N)C(=O)[O-])C[C@H]1O[C@@H](n2cnc3c(N)ncnc32)[C@H](O)[C@@H]1O (some centres unmarked) [SAM, S-adenosylmethionine]
[2]
  Kd: 1.6 µM

## [Cl-].[Cl-].[Zn+2] [ZnCl2]
[1]; 0.5 mM ZnCl2 added
  effect on histidine methylation of SLC39A7_55-70 by METTL9: substantially inhibited

## Ac-HTHESWIHG-NH2 [SLC39A7_66-74]
[2]
  Kd: 6.7 µM

## HTHESIWHG [SLC39A7_(66-74) peptide]
[4]
  fold weakening of binding against wild-type METTL9: 4 to 6 fold
[5]
  fold reduction of binding against wild-type METTL9: 6 to 10 fold
[6]
  binding result: binds
[7]
  binding result: binds
[8]
  binding result: binds

Reference: article PMC10308197 (Cell Insight, 2023)
